One data set addresses T1, Histone deacetylase 7 (Homo sapiens, UniProt Q8WUI4).
T1 sequence (Q8WUI4 whole entry): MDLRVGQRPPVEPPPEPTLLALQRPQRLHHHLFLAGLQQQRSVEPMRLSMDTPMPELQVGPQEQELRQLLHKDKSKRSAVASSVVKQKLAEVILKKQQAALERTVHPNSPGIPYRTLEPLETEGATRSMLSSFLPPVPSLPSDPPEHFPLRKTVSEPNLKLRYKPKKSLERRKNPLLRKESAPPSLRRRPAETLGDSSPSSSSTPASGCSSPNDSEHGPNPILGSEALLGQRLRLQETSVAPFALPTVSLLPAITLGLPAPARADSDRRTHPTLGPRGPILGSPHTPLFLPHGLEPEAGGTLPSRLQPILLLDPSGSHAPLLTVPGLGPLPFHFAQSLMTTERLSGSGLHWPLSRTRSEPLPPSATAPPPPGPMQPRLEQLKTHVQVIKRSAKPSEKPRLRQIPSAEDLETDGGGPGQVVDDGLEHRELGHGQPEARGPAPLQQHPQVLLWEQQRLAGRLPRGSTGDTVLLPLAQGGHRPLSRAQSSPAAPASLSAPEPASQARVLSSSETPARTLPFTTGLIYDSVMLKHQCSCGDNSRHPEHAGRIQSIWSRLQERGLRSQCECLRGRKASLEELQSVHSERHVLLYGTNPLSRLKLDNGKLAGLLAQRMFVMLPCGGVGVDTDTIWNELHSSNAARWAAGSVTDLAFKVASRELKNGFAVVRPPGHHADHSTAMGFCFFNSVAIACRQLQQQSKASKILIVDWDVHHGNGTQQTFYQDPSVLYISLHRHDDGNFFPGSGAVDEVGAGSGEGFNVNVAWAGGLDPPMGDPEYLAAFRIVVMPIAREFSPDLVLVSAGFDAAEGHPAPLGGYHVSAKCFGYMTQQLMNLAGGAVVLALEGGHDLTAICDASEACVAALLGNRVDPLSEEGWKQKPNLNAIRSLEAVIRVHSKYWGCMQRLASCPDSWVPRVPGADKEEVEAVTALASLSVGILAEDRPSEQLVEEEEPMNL
Put plainly: Inhibition of human HDAC7 using Boc-Lys(trifluoroacetyl)-AMC as flurogenic substrate.

For data set [1], the species on record is Homo sapiens. Put plainly: Selectivity ratio of IC50 for human HDAC9 to IC50 for human HDAC6.
The species entered for data set [2] is Homo sapiens. Put plainly: Selectivity ratio of IC50 for human HDAC7 to IC50 for human HDAC6.
Data set [3] deals with Lysine-specific histone demethylase 1A (Homo sapiens) (UniProt O60341). Put plainly: Inhibition of LSD1 (unknown origin) using […] as substrate at 1 uM incubated for 48 hrs followed by substrate addition and measured after 2 hrs by microplate reader analysis. The note with it: time 50.0 hrs.
Data set [4] is described as follows: Oral bioavailability in Sprague-Dawley rat at 25 mg/kg formulated using SMEDDS administered once via gavage measured upto 24 hrs post dose by UPLC-MS/MS analysis. It is filed as ADME, organism-based. The following applies: in vivo.
The nature of data set [5]: Metabolic stability in Sprague-Dawley rat hepatocyte assessed as intrinsic clearance at 10 uM by LC-MS/MS analysis. The data set is classed as ADME, cell-based. The note with it: hepatocytes, read-out: CLH.
Data set [6] is described as follows: AUC (0 to 24 hrs) in Sprague-Dawley rat at 25 mg/kg, po formulated using SMEDDS administered once via gavage measured upto 24 hrs post dose by UPLC-MS/MS analysis. It is filed as ADME, organism-based. The arrangement: dose 25 mg/kg, time < 24 hrs, route po. The note with it: in vivo.
For data set [7], the species on record is Homo sapiens. Put plainly: Selectivity ratio of IC50 for […] IC50 for human full length recombinant MAO-B.
The subject of data set [8] is DU-145. Put plainly: Upregulation of acetyl-tubulin in human DU-145 cells at 0.625 to 5 uM by Western blot analysis. The data set is classed as functional, cell-based. The following applies: dose 0.625-5 µM. On the technique in general: In western blotting, separated proteins are transferred to a membrane and probed.
Data set [9] is described as follows: Half life in Sprague-Dawley rat at 25 mg/kg, po formulated using SMEDDS administered once via gavage measured upto 24 hrs post dose by UPLC-MS/MS analysis. The data set is classed as ADME, organism-based. The following applies: in vivo.
Data set [10] concerns DU-145. Put plainly: Antitumor activity against human DU-145 cells xenografted in athymic nude mouse assessed as tumor growth inhibition at 200 mg/kg, po administered twice daily and measured upto 60 days by caliper method relative to control. The following applies: DU-145, 1440 h, time <= 60 day, read-out: TGI. The data set is classed as functional. (In general: A xenograft is tissue or cells of one species grown in another, often human tumour cells in immunodeficient mice.)

Data set [11] is described as follows: Clearance in Sprague-Dawley rat at 2 mg/kg, iv administered as single dose through tail vein measured upto 24 hrs post dose by UPLC-MS/MS analysis. The data set is classed as ADME, organism-based. The following applies: in vivo.
The nature of data set [12]: Half life in Sprague-Dawley rat at 25 mg/kg, po administered once via gavage measured upto 24 hrs post dose by UPLC-MS/MS analysis. It is filed as ADME, organism-based. The following applies: in vivo.
For data set [13], the system named is PC-3. Put plainly: Antitumor activity against human PC-3 cells xenografted in athymic nude mouse assessed as tumor growth inhibition at 50 mg/kg, po qd measured upto 25 days by caliper method relative to control. The note with it: PC-3, 600 h, time <= 25 day, read-out: TGI. It is filed as functional.
Data set [14] is described as follows: Metabolic stability in human hepatocyte assessed as parent compound remaining at 10 uM incubated for 240 mins by LC-MS/MS analysis. The data set is classed as ADME, cell-based. The note with it: hepatocytes, read-out: Stability.
In data set [15] the test system is PC-3. Put plainly: Induction of H3K4ME2 accumulation in human PC-3 cells at 0.5 to 10 uM incubated for 48 hrs by Western blot analysis. The data set is classed as functional, cell-based. The following applies: dose 0.5-10 µM.
Data set [16] concerns DU-145. Put plainly: Antitumor activity against human DU-145 cells xenografted in athymic nude mouse assessed as tumor growth inhibition at 50 mg/kg, po qd measured upto 60 days by caliper method relative to control. It is filed as functional. The following applies: DU-145, 1440 h, time <= 60 day, read-out: TGI.
A further data set has as its target Histone deacetylase 1 (Homo sapiens, UniProt Q13547). Put plainly: Inhibition of human HDAC1 (379 to 382 residues) using RHKKAc as flurogenic substrate.
The nature of data set [17]: AUC (0 to infinity) in Sprague-Dawley rat at 25 mg/kg, po administered once via gavage measured upto 24 hrs post dose by UPLC-MS/MS analysis. The data set is classed as ADME, organism-based. The note with it: in vivo. Details: time < 24 hrs, dose 25 mg/kg, route po.
Data set [18] deals with PC-3. Put plainly: Induction of cell death in LSD1 knockdown human PC-3 cells assessed as activation of procaspase-9 at 1.25 to 10 uM by Western blot analysis. It is filed as functional, cell-based. The following applies: dose 1.25-10 µM.
Data set [19] has as its system PC-3. Put plainly: Antitumor activity against human PC-3 cells xenografted in athymic nude mouse assessed as tumor growth inhibition at 100 mg/kg, po qd measured upto 25 days by caliper method relative to control. The data set is classed as functional. The note with it: PC-3, 600 h, time <= 25 day, read-out: TGI.
The nature of data set [20]: Metabolic stability in Sprague-Dawley rat hepatocyte assessed as parent compound remaining at 10 uM incubated for 240 mins by LC-MS/MS analysis. The data set is classed as ADME, cell-based. The following applies: hepatocytes, read-out: Stability.

Data on 1 compound can be found in ChEMBL document CHEMBL5096208, “Installation of Pargyline, a LSD1 Inhibitor, in the HDAC Inhibitory Template Culminated in the Identification of a Tractable Antiprostate Cancer Agent” (J Med Chem, 2021).

Structures are written as SMILES. Activity calls are given as the source filed them.

Sequence of Histone deacetylase 1 (Q13547 whole entry, the tested form may be a part): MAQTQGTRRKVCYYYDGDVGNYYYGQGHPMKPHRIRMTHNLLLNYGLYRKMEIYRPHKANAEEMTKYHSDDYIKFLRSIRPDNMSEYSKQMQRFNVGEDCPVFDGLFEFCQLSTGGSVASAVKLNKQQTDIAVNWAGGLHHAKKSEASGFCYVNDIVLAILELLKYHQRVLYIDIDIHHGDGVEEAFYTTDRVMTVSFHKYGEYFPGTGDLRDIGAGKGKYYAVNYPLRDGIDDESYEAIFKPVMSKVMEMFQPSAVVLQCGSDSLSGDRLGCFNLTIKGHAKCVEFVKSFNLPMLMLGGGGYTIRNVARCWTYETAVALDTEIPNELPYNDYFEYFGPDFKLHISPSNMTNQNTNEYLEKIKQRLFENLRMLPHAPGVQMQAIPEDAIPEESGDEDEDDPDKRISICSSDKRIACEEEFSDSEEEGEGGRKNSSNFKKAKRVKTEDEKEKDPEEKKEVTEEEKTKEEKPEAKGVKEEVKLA

On to `C#CCN(C)Cc1cccc(NC(=O)CCCCCCC(=O)NO)c1`, for which the concentration for half-maximal inhibition (IC50) against Histone deacetylase 7 is greater than 10000 nM; at Histone deacetylase 1 it was 673 nM. Further, the values for the Ratio IC50 in the data set listed under Homo sapiens [1], in the data set filed under Homo sapiens [2] and in the data set listed under Homo sapiens [7] were greater than 500, greater than 500 and 84, respectively. For the same compound, the inhibition entry in data set [3] was “Active”. The same compound returned a bioavailability in [4] of 62.1%. In addition, the CLint scaled at 10 µM in data set [5] amounted to 90.2 mL/min/kg. The AUC(0-t) at 24 h in [6] stood at 587 ng·h/mL. Further, the result in the data set on DU-145 [8], with PC-3 [15] and with PC-3 [18] was Active. Also, the results for the half-life in data set [9] and in [12] were 4.3 h and 3.4 h, respectively. For the same compound, in the data set with DU-145 [10], the inhibition in vivo at 200 mg/kg was 80.8%. In data set [11], this compound had a clearance of 500 mL/min/kg. In addition, the results for the inhibition in vivo at 50 mg/kg in the data set on PC-3 [13] and with DU-145 [16] were 36.9% and 65.8%, respectively. For the same compound, the remaining at 4 h, 10 µM in data set [14] came to 83.3%; in data set [20], 15.9%. In [17], this compound yielded an AUC(0-inf) of 113 ng·h/mL. Also, the inhibition in vivo at 100 mg/kg in the data set with PC-3 [19] came to 53.1%.

A word on the IC50: it is the concentration that inhibits the measured activity by half. Broadly, the bioavailability is the share of a dose that reaches the circulation, judged against a reference dose that is usually intravenous. As a reminder, the AUC(0-t) is the area under the concentration-time curve up to a stated or last time point. The term half-life denotes the time needed for the level to fall by half in the phase considered. The low end stands for rapid decline, the high end for slow decline. By clearance is commonly meant the volume of plasma or blood freed of the substance per unit of time. The low end stands for inefficient removal, the high end for efficient removal. Broadly, the AUC(0-inf) is total exposure, with the tail of the curve extrapolated. Lower therefore signals low exposure.
